In patent US9926281B2 (priority 2014, dated 2018):

What was measured:
rnADAMTS-5 (1-564-6H) = rnADAMTS-5 (1-564-6H) (Rattus norvegicus, UniProt Q6TY19); settings: read-out: Rat ADAMTS-5 potency IC50
human ADAMTS-5 = human ADAMTS-5 (Homo sapiens (Human), UniProt Q9UNA0); settings: read-out: hADAMTS-5 potency IC50
Protocol: Finally, the fluorescence is read on the Envision (Perkin Elmer) after an incubation of 90 min at 37° C.

human TACE = human TACE (Homo sapiens (Human), UniProt P78536); settings: read-out: TACE potency IC50
human MMP13 = human MMP13 (Homo sapiens (Human), UniProt P45452); settings: read-out: hMMP-13 potency IC50
Protocol: Human MMP13 is preactivated by incubated the enzyme in the same buffer complemented with 1 mM freshly prepared p-Aminophenylmercuric acetate (AMPA) for 1 hour at 37° C.

Sequence of human ADAMTS-5 (Q9UNA0 262-930): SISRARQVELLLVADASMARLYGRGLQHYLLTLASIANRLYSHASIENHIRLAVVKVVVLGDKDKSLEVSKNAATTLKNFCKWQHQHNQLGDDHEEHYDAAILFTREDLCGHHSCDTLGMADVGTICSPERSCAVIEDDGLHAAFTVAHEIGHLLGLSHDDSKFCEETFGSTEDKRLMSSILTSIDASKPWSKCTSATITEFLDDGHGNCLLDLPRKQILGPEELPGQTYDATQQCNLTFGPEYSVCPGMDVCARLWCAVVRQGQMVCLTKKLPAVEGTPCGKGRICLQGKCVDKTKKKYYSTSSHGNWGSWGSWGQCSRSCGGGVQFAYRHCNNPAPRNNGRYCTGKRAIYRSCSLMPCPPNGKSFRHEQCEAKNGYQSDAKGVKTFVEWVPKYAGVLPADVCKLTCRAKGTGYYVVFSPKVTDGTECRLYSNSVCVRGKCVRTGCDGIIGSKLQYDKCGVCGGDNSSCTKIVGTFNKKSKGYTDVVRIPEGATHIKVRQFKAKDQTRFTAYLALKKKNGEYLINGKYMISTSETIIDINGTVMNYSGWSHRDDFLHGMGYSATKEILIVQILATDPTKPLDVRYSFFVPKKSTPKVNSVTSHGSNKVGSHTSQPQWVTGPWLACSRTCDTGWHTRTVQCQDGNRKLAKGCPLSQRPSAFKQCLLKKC
Sequence of human TACE (P78536 whole entry, looked up, change not shown): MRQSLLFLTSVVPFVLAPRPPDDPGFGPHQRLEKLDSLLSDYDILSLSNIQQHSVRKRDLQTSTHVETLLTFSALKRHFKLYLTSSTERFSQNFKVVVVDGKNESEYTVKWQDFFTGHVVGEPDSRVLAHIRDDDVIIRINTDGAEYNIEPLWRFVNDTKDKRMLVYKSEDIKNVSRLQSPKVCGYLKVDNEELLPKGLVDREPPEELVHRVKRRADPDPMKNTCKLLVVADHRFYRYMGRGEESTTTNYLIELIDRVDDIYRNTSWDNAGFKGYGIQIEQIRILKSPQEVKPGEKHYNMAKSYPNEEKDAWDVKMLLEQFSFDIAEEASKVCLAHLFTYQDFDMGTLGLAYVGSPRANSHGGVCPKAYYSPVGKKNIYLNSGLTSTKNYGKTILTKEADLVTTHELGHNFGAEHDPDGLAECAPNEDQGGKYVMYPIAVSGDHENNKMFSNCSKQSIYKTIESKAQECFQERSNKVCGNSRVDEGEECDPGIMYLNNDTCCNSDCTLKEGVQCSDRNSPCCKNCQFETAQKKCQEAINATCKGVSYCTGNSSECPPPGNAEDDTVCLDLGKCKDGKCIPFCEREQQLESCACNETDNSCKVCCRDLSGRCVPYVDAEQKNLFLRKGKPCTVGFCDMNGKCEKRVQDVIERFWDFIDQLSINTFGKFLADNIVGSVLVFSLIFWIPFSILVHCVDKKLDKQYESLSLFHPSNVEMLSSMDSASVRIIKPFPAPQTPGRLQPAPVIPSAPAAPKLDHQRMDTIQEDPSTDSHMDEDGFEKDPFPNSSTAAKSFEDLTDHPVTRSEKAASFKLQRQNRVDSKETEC

Compound | IC50 (rnADAMTS-5 (1-564-6H)) [nM] | IC50 (human ADAMTS-5) [nM] | IC50 (human TACE) [nM] | IC50 (human MMP13) [nM]
CC(CC1(C2CC2)NC(=O)NC1=O)C(=O)N1CCN(c2ccc(Cl)cc2)[C@@H](C)C1 (stereo partly drawn) [compound 193, 5-[3-[(3S)-4-(4-chlorophenyl)-3-methyl-piperazin-1-yl]-2-methyl-3-oxo-propyl]-5-cyclopropyl-imidazolidine-2,4-dione] | 7 | 23 | > 20000 | 433
C[C@H]1CN(C(=O)CCC2(C3CC3)NC(=O)NC2=O)CCN1c1ccc(Cl)c(F)c1 (stereo partly drawn) [compound 162, 5-[3-[(3S)-4-(4-chloro-3-fluoro-phenyl)-3-methyl-piperazin-1-yl]-3-oxo-propyl]-5-cyclopropyl-imidazolidine-2,4-dione] | 45 | 39 | > 20000 | > 4000
C[C@H]1CN(C(=O)CC[C@@]2(C3CC3)NC(=O)NC2=O)CCN1c1ccc(Cl)c(Cl)c1 [compound 207, (5S)-5-cyclopropyl-5-[3-[(3S)-4-(3,4-dichlorophenyl)-3-methyl-piperazin-1-yl]-3-oxo-propyl]imidazolidine-2,4-dione] | 6 | 12 | > 4000 | 2880
CC(CC1(C2CC2)NC(=O)NC1=O)C(=O)N1CCN(c2ccc(F)c(F)c2)[C@@H](C)C1 (stereo partly drawn) [compound 191, 5-cyclopropyl-5-[3-[(3S)-4-(3,4-difluorophenyl)-3-methyl-piperazin-1-yl]-2-methyl-3-oxo-propyl]imidazolidine-2,4-dione] | 11 | 20 | > 20000 | 1880
C[C@H]1CN(C(=O)CCC2(C3CC3)NC(=O)NC2=O)CCN1c1cc(F)cc(Cl)c1 (stereo partly drawn) [compound 169, 5-[3-[(3S)-4-(3-chloro-5-fluoro-phenyl)-3-methyl-piperazin-1-yl]-3-oxo-propyl]-5-cyclopropyl-imidazolidine-2,4-dione] | 27 | 30 | > 20000 | > 20000
C[C@H]1CN(C(=O)CCC2(C3CC3)NC(=O)NC2=O)CCN1c1ccc(Cl)c(Cl)c1 (stereo partly drawn) [compound 167, 5-cyclopropyl-5-[3-[(3S)-4-(3,4-dichlorophenyl)-3-methyl-piperazin-1-yl]-3-oxo-propyl]imidazolidine-2,4-dione] | 10 | 19 | > 4000 | > 4000
CC(CC1(CC2CCN(C(=O)OC(C)(C)C)CC2)NC(=O)NC1=O)C(=O)N1CCN(c2cc(Cl)cc(Cl)c2)CC1 (stereo not shown) [compound 198, tert-butyl 4-[[4-[3-[4-(3,5-dichlorophenyl)piperazin-1-yl]-2-methyl-3-oxo-propyl]-2,5-dioxo-imidazolidin-4-yl]methyl]piperidine-1-carboxylate] | 38 | 52 | 817 | 1940
Cc1ccc(F)cc1N1CCN(C(=O)C(C)CC2(C)NC(=O)NC2=O)C[C@@H]1C (stereo partly drawn) [compound 216, 5-[3-[(3S)-4-(5-fluoro-2-methyl-phenyl)-3-methyl-piperazin-1-yl]-2-methyl-3-oxo-propyl]-5-methyl-imidazolidine-2,4-dione] | 250 | 305 | > 4000 | > 20000
COCCNC(=O)CC1(CCC(=O)N2CCN(c3cc(Cl)cc(Cl)c3)CC2)NC(=O)NC1=O (stereo not shown) [compound 187, 2-[4-[3-[4-(3,5-dichlorophenyl)piperazin-1-yl]-3-oxo-propyl]-2,5-dioxo-imidazolidin-4-yl]-N-(2-methoxyethyl)acetamide] | 396 | 456 | > 20000 | 2610
COC(CC1(C2CC2)NC(=O)NC1=O)C(=O)N1CCN(c2cc(Cl)cc(Cl)c2)CC1 (stereo not shown) [compound 206, 5-cyclopropyl-5-[3-[4-(3,5-dichlorophenyl)piperazin-1-yl]-2-methoxy-3-oxo-propyl]imidazolidine-2,4-dione] | 40 | 60 | > 4000 | > 4000
CC(CC1NC(=O)NC1=O)C(=O)N1CCN(c2cc(Cl)cc(Cl)c2)CC1 (stereo not shown) [compound 219, 5-[3-[4-(3,5-dichlorophenyl)piperazin-1-yl]-2-methyl-3-oxo-propyl]imidazolidine-2,4-dione] | 29 | 41 | – | > 4000
CC(CC1(C2CNC2)NC(=O)NC1=O)C(=O)N1CCN(c2cc(Cl)cc(Cl)c2)CC1 (stereo not shown) [compound 196] | 104 | 102 | > 3930 | > 20000
CN(C)c1cccc(N2CCN(C(=O)CCC3(C4CC4)NC(=O)NC3=O)CC2)c1 (stereo not shown) [compound 209, 5-cyclopropyl-5-[3-[4-[3-(dimethylamino)phenyl]piperazin-1-yl]-3-oxo-propyl]imidazolidine-2,4-dione] | 565 | 836 | > 4000 | > 20000
Cc1c(Cl)cccc1N1CCN(C(=O)C(C)CC2(C3CC3)NC(=O)NC2=O)CC1 (stereo not shown) [compound 176, 5-[3-[4-(3-chloro-2-methyl-phenyl)piperazin-1-yl]-2-methyl-3-oxo-propyl]-5-cyclopropyl-imidazolidine-2,4-dione] | 7 | 16 | 1230 | > 20000
C[C@H]1CN(C(=O)CCC2(C)NC(=O)NC2=O)CCN1c1cc(F)cc(Cl)c1 (stereo partly drawn) [compound 170, 5-[3-[(3S)-4-(3-chloro-5-fluoro-phenyl)-3-methyl-piperazin-1-yl]-3-oxo-propyl]-5-methyl-imidazolidine-2,4-dione] | 244 | 170 | – | > 20000
Cc1ccc(F)cc1N1CCN(C(=O)CCC2(C3CC3)NC(=O)NC2=O)C[C@@H]1C (stereo partly drawn) [compound 148, 5-cyclopropyl-5-[3-[(3S)-4-(5-fluoro-2-methyl-phenyl)-3-methyl-piperazin-1-yl]-3-oxo-propyl]imidazolidine-2,4-dione] | 97 | – | > 4000 | > 20000
Cc1c(Cl)cccc1N1CCN(C(=O)CCC2(C3CC3)NC(=O)NC2=O)CC1 (stereo not shown) [compound 98, 5-[3-[4-(3-chloro-2-methyl-phenyl)piperazin-1-yl]-3-oxo-propyl]-5-cyclopropyl-imidazolidine-2,4-dione] | 82 | – | > 4000 | > 20000
Cc1c(Cl)cccc1N1CCN(C(=O)CCC2(c3cccnc3)NC(=O)NC2=O)CC1 (stereo not shown) [compound 102, 5-[3-[4-(3-chloro-2-methyl-phenyl)piperazin-1-yl]-3-oxo-propyl]-5-(3-pyridyl)imidazolidine-2,4-dione] | 94 | – | 3400 | > 20000
O=C1NC(=O)C(CCC(=O)N2CCN(c3cccc(F)c3)CC2)(c2cccnc2)N1 (stereo not shown) [compound 112, 5-[3-[4-(3-fluorophenyl)piperazin-1-yl]-3-oxo-propyl]-5-(3-pyridyl)imidazolidine-2,4-dione] | 39 | – | > 4000 | 1880
C[C@H]1CN(C(=O)CCC2(C3CC3)NC(=O)NC2=O)CCN1c1cc(F)cc(F)c1 (stereo partly drawn) [compound 160, 5-cyclopropyl-5-[3-[(3S)-4-(3,5-difluorophenyl)-3-methyl-piperazin-1-yl]-3-oxo-propyl]imidazolidine-2,4-dione] | 36 | – | > 20000 | > 20000
CC(C)C1(CCC(=O)N2CCN(c3cccc(Cl)c3)CC2)NC(=O)NC1=O (stereo not shown) [compound 53, 5-[3-[4-(3-chlorophenyl)piperazin-1-yl]-3-oxo-propyl]-5-isopropyl-imidazolidine-2,4-dione] | 179 | – | > 4000 | > 20000
CC(CC1NC(=O)NC1=O)C(=O)N1CCN(c2cc(Cl)cc(Cl)c2)CC1 (stereo not shown) [compound 200, 5-[3-[4-(3,5-dichlorophenyl)piperazin-1-yl]-2-methyl-3-oxo-propyl]imidazolidine-2,4-dione] | 135 | 109 | – | > 20000
C[C@H]1CN(C(=O)CCC2(C3CC3)NC(=O)NC2=O)CCN1c1cccc(F)c1 (stereo partly drawn) [compound 151, 5-cyclopropyl-5-[3-[(3S)-4-(3-fluorophenyl)-3-methyl-piperazin-1-yl]-3-oxo-propyl]imidazolidine-2,4-dione] | 83 | – | > 20000 | > 20000
Cc1c(F)cccc1N1CCN(C(=O)CCC2(C3CC3)NC(=O)NC2=O)CC1 (stereo not shown) [compound 99, 5-cyclopropyl-5-[3-[4-(3-fluoro-2-methyl-phenyl)piperazin-1-yl]-3-oxo-propyl]imidazolidine-2,4-dione] | 116 | – | > 14700 | > 20000
O=C1Cc2cc(C3(CCC(=O)N4CCN(c5cccc(Cl)c5)CC4)NC(=O)NC3=O)ccc2N1 (stereo not shown) [compound 153, 5-[3-[4-(3-chlorophenyl)piperazin-1-yl]-3-oxo-propyl]-5-(2-oxoindolin-5-yl)imidazolidine-2,4-dione] | 114 | – | 2270 | > 4000
COc1ccccc1C1(CCC(=O)N2CCN(c3cccc(Cl)c3)CC2)NC(=O)NC1=O (stereo not shown) [compound 146, 5-[3-[4-(3-chlorophenyl)piperazin-1-yl]-3-oxo-propyl]-5-(2-methoxyphenyl)imidazolidine-2,4-dione] | 133 | – | 1580 | 3880
C[C@H]1CN(C(=O)CCC2(C)NC(=O)NC2=O)CCN1c1cccc(F)c1 (stereo partly drawn) [compound 157, 5-[3-[(3S)-4-(3-fluorophenyl)-3-methyl-piperazin-1-yl]-3-oxo-propyl]-5-methyl-imidazolidine-2,4-dione] | 284 | – | > 20000 | > 20000
C[C@H]1CN(C(=O)CCC2(C3CC3)NC(=O)NC2=O)CCN1c1cc(Cl)cc(Cl)c1 (stereo partly drawn) [compound 142, 5-cyclopropyl-5-[3-[(3S)-4-(3,5-dichlorophenyl)-3-methyl-piperazin-1-yl]-3-oxo-propyl]imidazolidine-2,4-dione] | 54 | – | > 4000 | > 20000
